Source: patent US20230126447A1, “OCULAR DRUG DEPOT FOR COMPLEMENT-MEDIATED DISORDERS” (priority 2020, published 2023)
“Also recorded” adds a separate entry of the source. Read-outs that look alike come from different tables or passages of the source.

Assay: Ocular tissue and plasma pharmacokinetics, 15 mg/kg single and BID oral, Dutch Belted rabbits (Example 3/5)
Assay type: in vivo
Conditions: for MRTlast / Tlast / MRT inf / half-life: Choroid-RPE; for concentration at 1 h / concentration at 6 h / concentration at 168 h / concentration at 24 h / concentration at 96 h / concentration at 240 h / concentration at 0 h / MRT inf / half-life: Dutch Belted, rabbit
Method: Study design including group designation and dose levels are outlined in Table 4. […] Fifteen Dutch Belted and 5 New Zealand White rabbits were used as un-dosed controls. […] The dose volume was 5 mL/kg/dose for all groups. Safety was assessed with toxicological and ophthalmic examinations including slit lamp biomicroscopy, indirect ophthalmoscopy, rebound tonometry, and ultrasonic corneal pachymetry.
Analyst® software (Version 1.6.2) was used to capture the LC-MS/MS data and integrate the peak areas. Calibration standards and QCs were prepared in a blank solution of 75%:25% acetonitrile:water (v:v), ranging from 10 ng/mL to 10,000 ng/mL. Matrix matched standard and QC samples were prepared by mixing 2 μL of standard or QC sample above with 18 μL of appropriate ocular tissue or plasma. The final calibration standards ranged from 1 ng/mL to 1000 ng/mL. All plasma, retina, choroid-RPE, optic nerve, and vitreous humor samples were analyzed in a single run. Iris-ciliary body samples were analyzed in two runs due to a need for sample dilution. […] Dilution QCs were prepared at 5000 ng/mL where appropriate. Two sets of standards were used to bracket the analytical run at the beginning and end of the run. Three sets of QCs were included the analytical runs. All concentrations in ocular matrices are reported as ng/g based on the assumed density of 1 g/mL.
1, 6, 24, 96, 168, and 240 hours post-dose on Day 15, with the eyes collected at the same time as blood sampling. A single blood sample was taken from Groups 4 and 5 at sacrifice. Plasma, vitreous humor (VH), retina, choroid-retina pigmented epithelium (Choroid-RPE), optic nerve (ON), and iris-ciliary body (I-CB) were analyzed by LC-MS/MS to quantify test article concentrations. The lower limit of quantitation (LLOQ) in plasma and vitreous humor was 1.0 ng/mL. The LLOQ was 6.0 ng/g in retina, Choroid-RPE, and I-CB and the optic nerve LLOQ was 15 ng/g, assuming tissue density of 1 g/mL where relevant.
Study design including group designation and dose levels are outlined in Table 18.

[1] = DB rabbit, 15 mg/kg BID, Day 15
[2] = DB rabbit, 15 mg/kg single dose, Day 1
[3] = DB rabbit, 15 mg/kg BID oral, Day 15, 24 h
[4] = DB rabbit, 15 mg/kg BID oral, Day 15, 96 h
[5] = DB rabbit, 15 mg/kg BID oral, Day 15, 168 h
[6] = DB rabbit, 15 mg/kg BID oral, Day 15, 240 h
[7] = DB rabbit, 15 mg/kg single oral dose, Day 1, 0 h
[8] = DB rabbit, 15 mg/kg single oral dose, Day 1, 0 h, 15 mg/kg
[9] = DB rabbit, 15 mg/kg single oral dose, Day 1, 24 h
[10] = DB rabbit, 15 mg/kg single oral dose, Day 1, 96 h
[11] = DB rabbit, 15 mg/kg single oral dose, Day 1, 96 h, 15 mg/kg
[12] = DB rabbit, 15 mg/kg single oral dose, Day 1, 168 h
[13] = DB rabbit, 15 mg/kg single oral dose, Day 1, 240 h
[14] = DB rabbits, Day 1, 15 mg/kg single dose, 0 hr
[15] = choroid-RPE, po, 15 mg/kg, DB rabbit, 15 mg/kg BID, Day 15
[16] = choroid-RPE, po, 15 mg/kg, DB rabbit, 15 mg/kg single dose, Day 1

CC(=O)c1nn(CC(=O)N2C[C@H](F)C[C@H]2C(=O)Nc2cccc(Br)n2)c2ccc(-c3cnc(C)nc3)cc12 [Compound 1, (2S,4R)-1-(2-(3-Acetyl-5-(2-methylpyrimidin-5-yl)-1H-indazol-1-yl)acetyl)-N-(6-bromopyridin-2-yl)-4-fluoropyrrolidine-2-carboxamide]
MRTlast [1]: 68.5 h | Tlast [1]: 240 h | MRTlast [2]: 49.7 h | Tlast [2]: 240 h | Vitreous humor concentration after 24 hours post-dose (non-detectable) (DB rabbit, 15 mg/kg BID for 14 days): < 1.0 ng/mL | Mean Aqueous Humor concentration (DB rabbit, 15 mg/kg BID oral, Day 15, 0 h): BLQ^a | Mean Aqueous Humor concentration (DB rabbit, 15 mg/kg BID oral, Day 15, 6 h): BLQ^a | Mean Aqueous Humor concentration [3]: BLQ^a | Mean Vitreous Humor concentration [3]: BLQ^a | Mean plasma concentration (DB rabbit, 15 mg/kg BID oral, Day 15, 24 h, 15 mg/kg): 5.6 ng/mL | Mean Aqueous Humor concentration [4]: BLQ^a | Mean Vitreous Humor concentration [4]: BLQ^a | Mean Aqueous Humor concentration [5]: BLQ^a | Mean Vitreous Humor concentration [5]: BLQ^a | Mean plasma concentration [5]: BLQ^a | Mean Aqueous Humor concentration [6]: BLQ^a | Mean Vitreous Humor concentration [6]: BLQ^a | Mean plasma concentration [6]: BLQ^a | Mean Aqueous Humor concentration [7]: BLQ^a | Mean Vitreous Humor concentration [7]: BLQ^a | Mean plasma concentration [7]: BLQ^a | Mean Choroid-RPE concentration [8]: BLQ^a and BLQ | Mean Iris-Ciliary Body concentration [8]: BLQ^a and BLQ | Mean retina concentration [8]: BLQa and BLQ^a and BLQ | Mean retina concentration (DB rabbit, 15 mg/kg single oral dose, Day 1, 6 h, 15 mg/kg): 30 ng/g | Mean Aqueous Humor concentration [9]: BLQ^a | Mean Vitreous Humor concentration [9]: BLQ^a | Mean retina concentration (DB rabbit, 15 mg/kg single oral dose, Day 1, 24 h, 15 mg/kg): 25 ng/g | Mean Aqueous Humor concentration [10]: BLQ^a | Mean Vitreous Humor concentration [10]: BLQ^a | Mean plasma concentration [11]: no drug was detectable; also recorded: BLQ^a | Mean retina concentration [11]: BLQ^a and BLQ | Mean Vitreous Humor concentration [12]: BLQ^a | Mean plasma concentration [12]: BLQ^a | Mean retina concentration (DB rabbit, 15 mg/kg single oral dose, Day 1, 168 h, 15 mg/kg): BLQ^a and BLQ | Mean Aqueous Humor concentration [13]: BLQ^a | Mean Vitreous Humor concentration [13]: BLQ^a | Mean plasma concentration [13]: BLQ^a | Mean retina concentration (DB rabbit, 15 mg/kg single oral dose, Day 1, 240 h, 15 mg/kg): BLQ^a and BLQ | Accumulation of the drug in Choroid-RPE after repeat dosing (DB rabbit, Day 1 to Day 15): ~6 fold | Mean Choroid-RPE concentration [14]: BLQ | Mean retina concentration [14]: BLQ | Mean retina concentration (DB rabbits, Day 1, 15 mg/kg single dose, 96 hr): BLQ | Mean retina concentration (DB rabbits, Day 1, 15 mg/kg single dose, 168 hr): BLQ | Mean retina concentration (DB rabbits, Day 1, 15 mg/kg single dose, 240 hr): BLQ | concentration at 1 h (aqueous humor, po, 15 mg/kg, DB rabbit, 15 mg/kg BID oral, Day 15, 1 h, read-out: Mean Aqueous Humor concentration): 10.6 ng/mL | concentration at 1 h (aqueous humor, po, 15 mg/kg, DB rabbit, 15 mg/kg single oral dose, Day 1, 1 h, read-out: Mean Aqueous Humor concentration): 3.8 ng/mL | concentration at 6 h (aqueous humor, po, 15 mg/kg, DB rabbit, 15 mg/kg single oral dose, Day 1, 6 h, read-out: Mean Aqueous Humor concentration): 45.3 ng/mL | concentration at 168 h (aqueous humor, po, 15 mg/kg, DB rabbit, 15 mg/kg single oral dose, Day 1, 168 h, read-out: Mean Aqueous Humor concentration): 11.1 ng/mL | concentration at 1 h (choroid-RPE, oral, 15 mg/kg, DB rabbits, Day 1, 15 mg/kg single dose, 1 hr, read-out: Mean Choroid-RPE Concentration): 917 ng/g | concentration at 6 h (choroid-RPE, oral, 15 mg/kg, DB rabbits, Day 1, 15 mg/kg single dose, 6 hr, read-out: Mean Choroid-RPE Concentration): 866 ng/g | concentration at 24 h (choroid-RPE, oral, 15 mg/kg, DB rabbits, Day 1, 15 mg/kg single dose, 24 hr, read-out: Mean Choroid-RPE Concentration): 311 ng/g | concentration at 96 h (choroid-RPE, oral, 15 mg/kg, DB rabbits, Day 1, 15 mg/kg single dose, 96 hr, read-out: Mean Choroid-RPE Concentration): 77.5 ng/g | concentration at 168 h (choroid-RPE, oral, 15 mg/kg, DB rabbits, Day 1, 15 mg/kg single dose, 168 hr, read-out: Mean Choroid-RPE Concentration): 56.3 ng/g | concentration at 240 h (choroid-RPE, oral, 15 mg/kg, DB rabbits, Day 1, 15 mg/kg single dose, 240 hr, read-out: Mean Choroid-RPE Concentration): 28.1 ng/g | concentration at 0 h (choroid-RPE, oral, 15 mg/kg, DB rabbits, Day 15, 15 mg/kg BID, 0 hr, read-out: Mean Choroid-RPE Concentration): 2460 ng/g | concentration at 1 h (choroid-RPE, oral, 15 mg/kg, DB rabbits, Day 15, 15 mg/kg BID, 1 hr, read-out: Mean Choroid-RPE Concentration): 4870 ng/g | concentration at 6 h (choroid-RPE, oral, 15 mg/kg, DB rabbits, Day 15, 15 mg/kg BID, 6 hr, read-out: Mean Choroid-RPE Concentration): 3200 ng/g | concentration at 24 h (choroid-RPE, oral, 15 mg/kg, DB rabbits, Day 15, 15 mg/kg BID, 24 hr, read-out: Mean Choroid-RPE Concentration): 1960 ng/g | concentration at 96 h (choroid-RPE, oral, 15 mg/kg, DB rabbits, Day 15, 15 mg/kg BID, 96 hr, read-out: Mean Choroid-RPE Concentration): 866 ng/g | concentration at 168 h (choroid-RPE, oral, 15 mg/kg, DB rabbits, Day 15, 15 mg/kg BID, 168 hr, read-out: Mean Choroid-RPE Concentration): 485 ng/g | concentration at 240 h (choroid-RPE, oral, 15 mg/kg, DB rabbits, Day 15, 15 mg/kg BID, 240 hr, read-out: Mean Choroid-RPE Concentration): 340 ng/g | MRT inf [15]: 125 h | half-life [15]: 107 h | MRT inf [16]: 81.8 h | half-life [16]: 98.4 h | concentration at 0 h (choroid-RPE, po, 15 mg/kg, DB rabbit, 15 mg/kg BID oral, Day 15, 0 h, read-out: Mean Choroid-RPE concentration): 2460 ng/g | concentration at 1 h (choroid-RPE, po, 15 mg/kg, DB rabbit, 15 mg/kg BID oral, Day 15, 1 h, read-out: Mean Choroid-RPE concentration): 4870 ng/g | concentration at 6 h (choroid-RPE, po, 15 mg/kg, DB rabbit, 15 mg/kg BID oral, Day 15, 6 h, read-out: Mean Choroid-RPE concentration): 3200 ng/g | concentration at 24 h (choroid-RPE, po, 15 mg/kg, DB rabbit, 15 mg/kg BID oral, Day 15, 24 h, read-out: Mean Choroid-RPE concentration): 1960 ng/g | concentration at 96 h (choroid-RPE, po, 15 mg/kg, DB rabbit, 15 mg/kg BID oral, Day 15, 96 h, read-out: Mean Choroid-RPE concentration): 866 ng/g | concentration at 168 h (choroid-RPE, po, 15 mg/kg, DB rabbit, 15 mg/kg BID oral, Day 15, 168 h, read-out: Mean Choroid-RPE concentration): 485 ng/g | concentration at 240 h (choroid-RPE, po, 15 mg/kg, DB rabbit, 15 mg/kg BID oral, Day 15, 240 h, read-out: Mean Choroid-RPE concentration): 340 ng/g | concentration at 1 h (choroid-RPE, po, 15 mg/kg, DB rabbit, 15 mg/kg single oral dose, Day 1, 1 h, read-out: Mean Choroid-RPE concentration): 917 ng/g | concentration at 6 h (choroid-RPE, po, 15 mg/kg, DB rabbit, 15 mg/kg single oral dose, Day 1, 6 h, read-out: Mean Choroid-RPE concentration): 866 ng/g | concentration at 24 h (choroid-RPE, po, 15 mg/kg, DB rabbit, 15 mg/kg single oral dose, Day 1, 24 h, read-out: Mean Choroid-RPE concentration): 311 ng/g | concentration at 96 h (choroid-RPE, po, 15 mg/kg, DB rabbit, 15 mg/kg single oral dose, Day 1, 96 h, read-out: Mean Choroid-RPE concentration): 77.5 ng/g | concentration at 168 h (choroid-RPE, po, 15 mg/kg, DB rabbit, 15 mg/kg single oral dose, Day 1, 168 h, read-out: Mean Choroid-RPE concentration): 56.3 ng/g | concentration at 240 h (choroid-RPE, po, 15 mg/kg, DB rabbit, 15 mg/kg single oral dose, Day 1, 240 h, read-out: Mean Choroid-RPE concentration): 28.1 ng/g
